In general, ED50 refers to the midpoint of the dose-response relation. In general, LD50 refers to the dose at which mortality reaches 50%.

Each structure is given as a SMILES string. Like-named read-outs stand apart in the source and are kept apart here.

Data set [1] concerns writhing syndrome caused by acetic acid. The data set is described as follows: Analgesic activity, acetic acid writhing method, oral. In kind it is in vivo, dd origin male mice. As to conditions: for ED50: Mus musculus, po, read-out: ED50 (analgesic activity); for activity ratio: ratio of ED50 values, methyl 3-nitro-4-allyloxyphenylacetate defined as 1. The protocol:
(b) The analgesic activity was measured by means of acetic and writhing
10dd origin male mice weighing 17 -
25g were used as one group after 18 hours of fasting. After oral
administration of the test compounds the frequencies of writhing syndrome
caused by intraperitoneal administration of 0.1 ml/10g of a 0.6% acetic
acid were measured for 20 minutes. The frequencies of writhing syndrome
which are below 50% of those of the control group were defined as
analgesic activity (+) and the ED50 values were calculated by means of
Litchfield-Wilcoxon method. The ED50 value of methyl
3-nitro-4-allyloxyphenylacetate is defined as 1 and the activity ratios of
the test compounds were expressed as ratio of ED50 values. The test
compounds were administered as a suspension such as are adjusted to be 0.1
ml/10g in a 1% tragacanth solution. A 1% tragacanth solution was
administered to the control group.
In general terms: Writhing tests count abdominal constrictions after an irritant is injected.

Data set [2] deals with carrageenin edema. The data set is described as follows: Anti-inflammatory activity: inhibition of carrageenin edema of the rat paw, oral. In kind it is in vivo, wistar male rats. As to conditions: read-out: inhibiting rate; for inhibition in vivo at 12.5 mg/kg: 12.5 mg/kg orally; for inhibition in vivo at 12.5 mg/kg / inhibition in vivo at 25 mg/kg / inhibition in vivo at 100 mg/kg / inhibition in vivo at 50 mg/kg: rats, 4 hours after carrageenin; for inhibition in vivo at 25 mg/kg: 25 mg/kg orally; for inhibition in vivo at 100 mg/kg: 100 mg/kg orally; for inhibition in vivo at 50 mg/kg: 50 mg/kg orally. The protocol:
The anti-inflamatory activity is shown by inhibiting rate calculated from measurement of carrageenin edema intensity. Five wistar male rats having body weight of 120 - 180g are defined as one group and after fasted for 18 hours, the sample containing a 1% tragacanth solution such as is suspended so as to become 5 ml/kg was administered orally to the said group. Only the same volume of the 1% tragacanth solution was administered to the control group. After one hour, 0.05 ml of a 1% carrageenin (manufactured by Picnin-A, Pasco International Corp.) was injected subcutaneously to the plantar legion of right hind paw of rats. Before injection and after 4 hours of injection of carrageenin, the right hind paw volume was measured by means of paw volume measurement instrument manufactured by Ugo-Basile and an increase % of paw volume was calculated. The inhibiting rate was calculated from an increase ratio of the examined group against the central groups.

Data set [3] can be described thus: in vivo. As to conditions: rat, po, orally, rats.
The mark [4] stands for this setting: orally, mice, 0.6% acetic acid i.p., Litchfield-Wilcoxon method.

For the molecule `CC(=O)Oc1ccccc1C(=O)O` [Aspirin], in data set [1], the ED50 was 320 mg/kg and the activity ratio stood at 0.09.

As for `COc1ccc2c(c1)c(CC(=O)O)c(C)n2C(=O)c1ccc(Cl)cc1` [Indomethacine], in data set [2] (4 h), the inhibition in vivo at 1 mg/kg worked out at 39.8%, the inhibition in vivo at 3 mg/kg is 46% and the inhibition in vivo at 9 mg/kg turned out to be 60.4%.

For `C=CCOc1ccc(CC(=O)OC)cc1[N+](=O)[O-]` [Methyl 3-nitro-4-allyloxyphenylacetate], in data set [2], the inhibition in vivo at 12.5 mg/kg was 51.7% and the inhibition in vivo at 25 mg/kg was found to be 72.1%. The ED50 in data set [1] (setting [4]) was 31 mg/kg. Besides, the LD50 in data set [3] (female) is greater than 3000 mg/kg. The molecule also returned an LD50 in data set [3] (male) greater than 3000 mg/kg.

For the molecule `C=CCOc1ccc(C(C)C(=O)OCC)cc1[N+](=O)[O-]` (stereo not shown) [Ethyl 2-(3-nitro-4-allyloxyphenyl)propionate], the inhibition in vivo at 100 mg/kg in data set [2] came out at 55.5%.

With `C=CCOc1ccc(C(C)C(=O)OC)cc1[N+](=O)[O-]` (stereo not shown) [Methyl 2-(3-nitro-4-allyoxyphenyl)propionate], the inhibition in vivo at 100 mg/kg in data set [2] was 50.1%.

In the case of `Cc1c(N(C)C)c(=O)n(-c2ccccc2)n1C` [Aminopyrine], the ED50 in data set [1] (setting [4]) worked out at 80 mg/kg. Further, the activity ratio in data set [1] came out at 0.38.

Regarding `CCCCC1C(=O)N(c2ccccc2)N(c2ccccc2)C1=O` [Phenylbutazone], in data set [2], the inhibition in vivo at 12.5 mg/kg stood at 14.1%, the inhibition in vivo at 25 mg/kg worked out at 49.1% and the inhibition in vivo at 50 mg/kg was 59.4%.

On to `C=CCOc1ccc(CC(=O)O)cc1[N+](=O)[O-]` [3-Nitro-4-allyloxyphenylacetic acid], for which, in data set [2], the inhibition in vivo at 12.5 mg/kg amounted to 13.9%, the inhibition in vivo at 25 mg/kg was 24.3% and the inhibition in vivo at 50 mg/kg was found to be 66.6%. Moreover, the ED50 in data set [1] (setting [4]) stood at 96 mg/kg. Besides, the activity ratio in data set [1] is 0.32. In addition, the LD50 in data set [3] (female) worked out at 1360 mg/kg. The molecule further had a 50% lethal dose (LD50) in data set [3] (male) of 1480 mg/kg.

As to `C#CCOc1ccc(CC(=O)OC)cc1[N+](=O)[O-]` [Methyl 3-nitro-4-propargyloxyphenylacetate], the inhibition in vivo at 100 mg/kg in data set [2] stood at 44.9%.

Regarding `C=CCOc1ccc(CC(N)=O)cc1[N+](=O)[O-]` [3-nitro-4-allyloxyphenylacetamide], in data set [2], the inhibition in vivo at 100 mg/kg came out at 37.7%.

Consider `C=CCOc1ccc(CC(=O)O)cc1Cl` [3-chloro-4-allyloxyphenylacetic acid], for which, in data set [2], the inhibition in vivo at 25 mg/kg was 47%, the inhibition in vivo at 50 mg/kg amounted to 51.8% and the inhibition in vivo at 100 mg/kg amounted to 62%. Further, the ED50 in data set [1] (setting [4]) turned out to be 56.8 mg/kg.

In the case of `COc1cc(C)nc(-n2nc(C)cc2OC)n1` [Mepirizole], in data set [2], the inhibition in vivo at 25 mg/kg is 19.5%, the inhibition in vivo at 50 mg/kg worked out at 51.8% and the inhibition in vivo at 100 mg/kg was 52.7%. Moreover, the ED50 in data set [1] (setting [4]) was determined as 117 mg/kg. Also, the activity ratio in data set [1] came out at 0.26. In data set [3] (female), this molecule returned an LD50 of 971 mg/kg. Besides, in data set [3] (male), the LD50 was 1020 mg/kg.

On to `C=CCOc1ccc(C(C)C(=O)O)cc1[N+](=O)[O-]` (stereo not shown) [2-(3-nitro-4-allyloxyphenyl)propionic acid], for which the inhibition in vivo at 100 mg/kg in data set [2] came out at 40.1%.

Regarding `C#CCOc1ccc(CC(=O)O)cc1[N+](=O)[O-]` [3-Nitro-4-propargyloxyphenylacetic acid], in data set [2], the inhibition in vivo at 50 mg/kg was 28.8% and the inhibition in vivo at 100 mg/kg came to 40.3%.

(Values after patent publication US4016193A, “Novel substituted phenylacetic acid derivatives and a process for preparing thereof” (Mitsubishi Yuka Pharmaceutical Co., Ltd., priority 1974, dated 1977).)
